# Structures can show the parent of a compound that is named as a salt.
# Assays:
# primary neurons [1] = assay: TMRM fluorescence assay of inner mitochondrial membrane potential (ΔΨm); settings: for hit in TMRM primary screen when assayed at 4 h / TMRM Primary: 12.5 μM; for TMRM Primary: primary screen; for TMRM Primary / TMRM Rescreen: 24 h; for Emax / EC50: Mus musculus, Primary neuron; for Emax: read-out: TMRM (Effect-size); for EC50: read-out: TMRM-EC50
# Experimental: Mitochondrial dyes. To assay the electrochemical potential across the inner mitochondrial membrane of cultured cells, we used the cell-permeant dye tetramethylrhodamine methyl ester (TMRM). For co-localization studies with Mt-GFP, TMRM was used at 20 nM on DIV14 and incubated for 30 min prior to imaging. For the orthogonal screen of compounds, TMRM was added to primary neurons on DIV13 at 10 nM, one hr prior to pintooling selected compounds, and incubated for 24 hr. Cells were washed 2× with pre-warmed fresh feeding media without B27 before measurements with a plate reader.
# (§1) A CLARIOstar (BMG LABTECH) microplate reader was used to measure fluorescence of TMRM and luminescence produced from the ATP.
# (§2) Mitochondrial membrane potential (Δψm) and luminescence-based ATP assays. […] Changes of ΔΨm in each well were monitored using the mitochondrial-specific, fluorescent dye TMRM (tetramethyl rhodamine, methyl ester; Molecular Probes) and measured using a CLARIOstar plate reader. […] This concentration was used throughout our experiments. […] Wells in columns 1 and 24 were not loaded with TMRM; these served to measure background signal which was subtracted from the wells to which TMRM was added. To measure the total ATP levels in neurons we utilized the CellTiter-Glo® luminescence-based ATP assay (Promega). DIV13 primary neurons were cultured for 24 h with either DMSO carrier or compound treatment, followed by removing 55 μl culture medium from each well. Plates were maintained at room temperature for 25 m, and 25 μl of CellTiter-Glo® Reagent with the substrate luciferin was then added to each well (Promega). Plates were covered with aluminum foil and shaken vigorously on an orbital shaker for 10 m at 200 rpm and maintained at room temperature for an additional 2 m in dark before being read with the plate reader set to the luminescence mode.
# Compound library and hit picking rules. We screened 2400 compounds from the MicroSource Spectrum library. […] FIGS. 13A-13E provide details of the assays used from which hit picking rules were made. In essence, the average fluorescence for each compound in the TMRM assay was determined and compared to the average fluorescence for compounds in the population on each assay plate to produce a Z-score. The Z-scores for each individual compound assayed across the four replicate plates was then averaged.
# primary neurons [2] = assay: CellTiter-Glo luminescence-based ATP assay; type: cell-based, mouse; settings: for ATP: ATP orthogonal screen, 24 h; for EC50 / Emax: Mus musculus, Primary neuron, dose response; for EC50: 15 concentrations from 6 nM to 100 uM; for Emax: maximal percent increase relative to in-plate DMSO controls, read-out: ATP (Effect-size)
# Experimental: Measurement of ATP production. The total amount of ATP produced by cultured primary neurons was measured by CellTiter-Glo Luminescent Cell Viability Assay (Promega). A recombinant luciferase enzyme catalyzed the mono-oxygenation of luciferin while hydrolyzing ATP produced by the cells and emitting light. We followed the manufacturer's protocol with primary neurons on DIV14.
# as §1, §2
# Compound library and hit picking rules. We screened 2400 compounds from the MicroSource Spectrum library. […] FIGS. 13A-13E provide details of the assays used from which hit picking rules were made. In essence, the average fluorescence for each compound in the TMRM assay was determined and compared to the average fluorescence for compounds in the population on each assay plate to produce a Z-score. The Z-scores for each individual compound assayed across the four replicate plates was then averaged. Because of significant well location effects (outer rows) on each assay plate (FIG. 13G), we selected primary hits as enhancing well fluorescence above the μplate by 3σplate for inner row wells (rows C-N, columns 3-22), and by 2.5σplate for outer row wells (rows A, B, O, P; columns 3-22) (FIG. 14C-D). […] All orthogonal assays employed inner wells of the 384-well plates.
EC50 (primary neurons [1]),SMILES,hit in TMRM primary screen when assayed at 4 h (primary neurons [1]),TMRM Primary (primary neurons [1]),TMRM Rescreen (primary neurons [1]),ATP (primary neurons [2]),Emax (primary neurons [1]),EC50 (primary neurons [2]),Emax (primary neurons [2])
–,CCN(CC)CCOC(=O)C(Cc1cccc2ccccc12)CC1CCCO1 (stereo not drawn) [nafronyl oxalate],nafronyl oxalate*,4.08 Z-scores,5.89 Z-scores,5.17 Z-scores,–,–,–
–,CN(C/C=C/c1ccccc1)Cc1cccc2ccccc12 [naftifine hydrochloride],–,3.26 Z-scores,4.64 Z-scores,4.65 Z-scores,–,–,–
–,OC(CNCC(O)C1CCc2cc(F)ccc2O1)C1CCc2cc(F)ccc2O1 (stereo not drawn) [nebivolol hydrochloride],–,3.73 Z-scores,5.29 Z-scores,6.92 Z-scores,–,–,–
–,CCc1nn(CCCN2CCN(c3cccc(Cl)c3)CC2)c(=O)n1CCOc1ccccc1 [nefazodone hydrochloride],–,4.00 Z-scores,6.11 Z-scores,6.30 Z-scores,–,–,–
–,COC(=O)C1=C(C)NC(C)=C(C(=O)OCCN(C)Cc2ccccc2)C1c1cccc([N+](=O)[O-])c1 (stereo not drawn) [nicardipine hydrochloride],–,4.22 Z-scores,−5.52 Z-scores,−3.75 Z-scores,–,–,–
–,COCCOC(=O)C1=C(C)NC(C)=C(C(=O)OC(C)C)C1c1cccc([N+](=O)[O-])c1 (stereo not drawn) [nimodipine],–,4.40 Z-scores,3.98 Z-scores,6.53 Z-scores,–,–,–
–,CCCCCCCCCCC[C@@H](C[C@@H]1OC(=O)[C@H]1CCCCCC)OC(=O)[C@H](CC(C)C)NC=O [orlistat],–,3.43 Z-scores,1.56 Z-scores,2.36 Z-scores,–,–,–
–,Clc1ccc(CO/N=C(\Cn2ccnc2)c2ccc(Cl)cc2Cl)c(Cl)c1 [oxiconazole nitrate],–,3.08 Z-scores,3.28 Z-scores,5.76 Z-scores,–,–,–
–,Fc1ccc([C@@H]2CCNC[C@H]2COc2ccc3c(c2)OCO3)cc1 [paroxetine hydrochloride],–,3.53 Z-scores,3.26 Z-scores,4.41 Z-scores,–,–,–
–,CC(C)(C)NC[C@H](O)COc1ccccc1C1CCCC1 [penbutolol sulfate],–,3.16 Z-scores,5.35 Z-scores,3.39 Z-scores,–,–,–
–,C/C(=C\CO)CCC[C@H](C)CCC[C@H](C)CCCC(C)C [phytol],–,3.42 Z-scores,2.70 Z-scores,4.63 Z-scores,–,–,–
–,CC[N+]1(C)CCCC(OC(=O)C(O)(c2ccccc2)c2ccccc2)C1 (stereo not drawn) [pipenzolate bromide],–,3.14 Z-scores,7.09 Z-scores,3.45 Z-scores,–,–,–
–,CC(=O)c1ccc2c(c1)N(CCCN1CCC(CCO)CC1)c1ccccc1S2 [piperacetazine],–,5.30 Z-scores,5.01 Z-scores,5.80 Z-scores,–,–,–
–,CCN1CCCC(OC(=O)C(c2ccccc2)c2ccccc2)C1 (stereo not drawn) [piperidolate hydrochloride],–,3.58 Z-scores,3.76 Z-scores,5.72 Z-scores,–,–,–
–,CCCCOc1ccc(OCCCN2CCOCC2)cc1 [pramoxine hydrochloride],–,2.93 Z-scores,−4.72 Z-scores,−1.97 Z-scores,–,–,–
0.85 µM,OC(CCN1CCCC1)(c1ccccc1)C1CCCCC1 (stereo not drawn) [procyclidine hydrochloride],–,4.55 Z-scores,6.91 Z-scores,7.14 Z-scores,23.3%,0.24 µM,18.7%

EC50 (primary neurons [1]),SMILES,hit in TMRM primary screen when assayed at 4 h (primary neurons [1]),TMRM Primary (primary neurons [1]),TMRM Rescreen (primary neurons [1]),ATP (primary neurons [2]),Emax (primary neurons [1]),EC50 (primary neurons [2]),Emax (primary neurons [2])
–,CN(C)CCCN1c2ccccc2Sc2ccccc21 [promazine hydrochloride],–,3.81 Z-scores,4.04 Z-scores,4.76 Z-scores,–,–,–
–,CCCNCC(O)COc1ccccc1C(=O)CCc1ccccc1 (stereo not drawn) [propafenone hydrochloride],–,3.75 Z-scores,5.04 Z-scores,5.18 Z-scores,–,–,–
–,CCCOc1ccc(C(=O)OCCN(CC)CC)cc1N [proparacaine hydrochloride],–,3.43 Z-scores,4.65 Z-scores,4.11 Z-scores,–,–,–
–,CCc1nc(N)nc(N)c1-c1ccc(Cl)cc1 [pyrimethamine],pyrimethamine*,3.43 Z-scores,4.00 Z-scores,6.54 Z-scores,–,–,–
–,C=C[C@H]1CN2CC[C@H]1C[C@H]2[C@H](OC(=O)OCC)c1ccnc2ccc(OC)cc12 [quinine ethyl carbonate],–,4.64 Z-scores,6.26 Z-scores,3.60 Z-scores,–,–,–
4.58 µM,COC(=O)[C@H]1[C@H]2C[C@H]3c4[nH]c5ccccc5c4CCN3C[C@H]2CC[C@@H]1O [rauwolscine hydrochloride],–,4.30 Z-scores,8.77 Z-scores,8.40 Z-scores,29.4%,1 µM,20.9%
0.64 µM,COC(=O)[C@H]1[C@H]2C[C@@H]3c4[nH]c5cc(OC)ccc5c4CCN3C[C@H]2C[C@@H](OC(=O)c2cc(OC)c(OC)c(OC)c2)[C@@H]1OC [reserpine],–,7.44 Z-scores,7.89 Z-scores,5.29 Z-scores,22.5%,0.12 µM,20.5%
–,Cc1nc2sccn2c(=O)c1CCN1CCC(=C(c2ccc(F)cc2)c2ccc(F)cc2)CC1 [ritanserin],–,5.25 Z-scores,5.83 Z-scores,4.40 Z-scores,–,–,–
–,C=C[C@](C)(O)CC[C@@H]1[C@@]2(C)CCCC(C)(C)[C@@H]2CC[C@@]1(C)O [sclareol],–,2.80 Z-scores,5.41 Z-scores,4.64 Z-scores,–,–,–
–,CN[C@H]1CC[C@@H](c2ccc(Cl)c(Cl)c2)c2ccccc21 [sertraline hydrochloride],–,3.42 Z-scores,4.15 Z-scores,4.82 Z-scores,–,–,–
–,C1CCN2C[C@@H]3C[C@@H](CN4CCCC[C@@H]34)[C@H]2C1 [sparteine sulfate],–,2.65 Z-scores,1.95 Z-scores,2.92 Z-scores,–,–,–
–,COc1ccc(-n2nc(CCC(=O)N(C)O)cc2-c2ccc(Cl)cc2)cc1 [tepoxalin],–,4.36 Z-scores,3.75 Z-scores,6.89 Z-scores,–,–,–
–,CC(C)N1CCN(c2ccc(OCC3COC(Cn4cncn4)(c4ccc(Cl)cc4Cl)O3)cc2)CC1 (stereo not drawn) [terconazole],–,5.15 Z-scores,5.95 Z-scores,2.82 Z-scores,–,–,–
–,CN1CCN(CC/C=C2/c3ccccc3Sc3ccc(S(=O)(=O)N(C)C)cc32)CC1 [thiothixene],–,3.08 Z-scores,3.38 Z-scores,3.80 Z-scores,–,–,–
–,COc1ccc(CN(CCN(C)C)c2ncccn2)cc1 [thonzylamine hydrochloride],–,3.16 Z-scores,3.21 Z-scores,5.17 Z-scores,–,–,–

SMILES,EC50 (primary neurons [1]),hit in TMRM primary screen when assayed at 4 h (primary neurons [1]),TMRM Primary (primary neurons [1]),TMRM Rescreen (primary neurons [1]),ATP (primary neurons [2]),Emax (primary neurons [1]),EC50 (primary neurons [2]),Emax (primary neurons [2])
CNCCC=C1c2ccccc2CCc2ccccc21 [nortriptyline hydrochloride],0.55 µM,–,3.77 Z-scores,5.25 Z-scores,5.66 Z-scores,21%,0.2 µM,16.5%

# From patent US20230003721A1, “MITOTHERAPEUTICS FOR THE TREATMENT OF BRAIN DISORDERS” (The University of Florida Research Foundation, Inc., priority 2019, published 2023)
